# Reference: US20070155687A1, “Methods and compositions for altering cell function” (Alltech, Inc., priority 2005, published 2007)
# Columns and labels:
# Format in all cases: in vivo
# [1] = test system: Amyloid beta (A4) precursor-like protein (Aplp 1); test: Cerebral cortex gene expression: Aplp 1; settings: mouse cerebral cortex; diet 1 ppm Se, 100 days; * significant relative to Se-deficient animals, P < 0.01
# From the text: (§1) Animal Care. Male C57BL/6J mice were housed singly and started on the experimental diets described below immediately after weaning (21 days of age). The mice were maintained in the Shared Aging Rodent Facility at the William S. Middleton Memorial Veterans Administration Medical Center (Madison, Wis.). Temperature and humidity were maintained at constant levels. Room light was controlled to provide 12-hr cycles of light and dark.
# (§2) Experimental diets were created by Harlan Teklad (Madison, Wis.). Selenium content of the diets was determined by Covance Inc. (Madison, Wis.). Five (5) animals were included in each of the following treatment groups: a diet deficient in selenium (SD); a diet supplemented with selenomethionine (SM, obtained from Sigma, St. Louis, Mo.) such that the final selenium content of the diet was one (1) part per million; a diet supplemented with sodium selenite (SS, Sigma) such that the final concentration of selenium in this diet was one (1) part per million; or a diet supplemented with the yeast selenium SEL-PLEX (SP, Alltech, Lexington, Ky), such that the final concentration of selenium in this diet was one (1) part per million. SEL-PLEX. […]
# (§3) Tissue sample preparation and microarray analysis. […] For intestinal expression studies, the intestine was flushed twice with saline solution and small intestine was measured and divided in three equal segments. […]
# [2] = test system: Complement component 1, q subcomponent, gamma polypeptide, C1qg; test: Cerebral cortex gene expression: C1qg; settings: mouse cerebral cortex; diet 1 ppm Se, 100 days; vs selenium deficient; * = significant, p<0.01
# From the text: as §1, §2, §3
# [3] = test system: Growth arrest and DNA-damage-inducible 45 gamma. (Gadd45g); test: Intestinal gene expression: Gadd45g; settings: mouse intestine, diet 1 ppm Se, 100 days, vs selenium deficient, negative = down
# From the text: as §1
# Experimental diets were created by Harlan Teklad (Madison, Wis.). Selenium content of the diets was determined by Covance Inc. (Madison, Wis.). Five (5) animals were included in each of the following treatment groups: a diet deficient in selenium (SD); a diet supplemented with selenomethionine (SM, obtained from Sigma, St. Louis, Mo.) such that the final selenium content of the diet was one (1) part per million; a diet supplemented with sodium selenite (SS, Sigma) such that the final concentration of selenium in this diet was one (1) part per million; or a diet supplemented with the yeast selenium SEL-PLEX (SP, Alltech, Lexington, Ky), such that the final concentration of selenium in this diet was one (1) part per million. SEL-PLEX. Mice were provided with water and their respective diet ad libitum for 100 days. Diets were stored at the dark at 4° C. and fresh diet was added to feeder twice weekly.
# Tissue sample preparation and microarray analysis. Mice were killed at 100 days of age by cervical dislocation. For intestinal expression studies, the intestine was flushed twice with saline solution and small intestine was measured and divided in three equal segments. A 3-cm region of the middle segment of the small intestine corresponding to the jejunum (˜300 mg of tissue) was cut and rinsed again with physiological saline to completely remove contents, flash frozen in liquid nitrogen and stored at −80° C. For brain (e.g., cerebral cortex) studies, the cerebral cortex was separated from the surrounding brain tissue and was flash frozen in liquid nitrogen and stored at −80° C. […]
# Gst pi 1 (Gstp1) = test: Brain gene expression: Gstp1; settings: mouse brain; diet 1 ppm Se, 100 days; * significant relative to Se-deficient animals
# From the text: as §1, §2, §3
# Glutathione Peroxidase 3 = test: Intestinal gene expression (microarray): Glutathione Peroxidase 3; settings: mouse intestine; diet 1 ppm Se, 100 days; vs selenium deficient; all p < 0.01
# From the text: as §1, §2, §3
# [4] = test system: Amyloid beta (A4) precursor protein-binding, family B, member 1 (Apbb1 or Fe65); test: Cerebral cortex gene expression: Apbb1/Fe65; settings: mouse cerebral cortex; diet 1 ppm Se, 100 days; * significant relative to Se-deficient animals, P < 0.01
# From the text: as §1, §2, §3
# [5] = test system: SelR (also known as Selenoprotein X1); test: Intestinal gene expression: SelR; settings: mouse intestine; diet 1 ppm Se, 100 days; vs selenium deficient
# From the text: as §1, §2, §3
# Gadd45b = test: Brain gene expression: Gadd45b; settings: mouse brain; diet 1 ppm Se, 100 days; * significant relative to Se-deficient animals
# From the text: as §1, §2, §3
# [6] = test system: Type 1 iodothyronine deiodinase; test: Intestinal gene expression: Type 1 iodothyronine deiodinase; settings: mouse intestine; diet 1 ppm Se, 100 days; vs selenium deficient
# From the text: as §1, §2, §3
# Gst zeta 1 (Gstz1) = test: Brain gene expression: Gstz1; settings: mouse brain; diet 1 ppm Se, 100 days; * significant relative to Se-deficient animals
# From the text: as §1, §2, §3
# Gst mu 7 (Gstm7) = test: Brain gene expression: Gstm7; settings: mouse brain; diet 1 ppm Se, 100 days; * significant relative to Se-deficient animals
# From the text: as §1, §2, §3
# Cathepsin Z = test: Cerebral cortex gene expression: Cathepsin Z; settings: mouse cerebral cortex; diet 1 ppm Se, 100 days; * downregulation significant relative to Se-deficient mice
# From the text: as §1, §2, §3
# Cathepsin O = test: Cerebral cortex gene expression: Cathepsin O; settings: mouse cerebral cortex; diet 1 ppm Se, 100 days; * downregulation significant relative to Se-deficient mice
# From the text: as §1, §2, §3
# Cathepsin B = test: Cerebral cortex gene expression: Cathepsin B; settings: mouse cerebral cortex; diet 1 ppm Se, 100 days; * downregulation significant relative to Se-deficient mice
# From the text: as §1, §2, §3
# Nicastrin = test: Cerebral cortex gene expression: Nicastrin; settings: mouse cerebral cortex; diet 1 ppm Se, 100 days; * significant relative to Se-deficient animals, P < 0.01
# From the text: as §1, §2, §3
# Presenilin 1 = test: Cerebral cortex gene expression: Presenilin 1; settings: mouse cerebral cortex; diet 1 ppm Se, 100 days; * significant relative to Se-deficient animals, P < 0.01
# From the text: as §1, §2, §3
# Cathepsin D = test: Cerebral cortex gene expression: Cathepsin D; settings: mouse cerebral cortex; diet 1 ppm Se, 100 days; * downregulation significant relative to Se-deficient mice
# From the text: as §1, §2, §3
# [7] = test system: Gadd45g1p (Growth arrest and DNA-damage inducible 45 gamma interacting protein); test: Brain gene expression: Gadd45g1p; settings: mouse brain; diet 1 ppm Se, 100 days; * significant relative to Se-deficient animals
# From the text: as §1, §2, §3
# Junb = test: Cerebral cortex gene expression: Junb; settings: mouse brain (neocortex); diet 1 ppm Se, 100 days; * significant relative to Se-deficient animals
# From the text: as §1, §2, §3
# [8] = test system: Complement component 1, q subcomponent, beta polypeptide, C1qbp; test: Cerebral cortex gene expression: C1q beta polypeptide; settings: mouse cerebral cortex; diet 1 ppm Se, 100 days; vs selenium deficient; * = significant, p<0.01
# From the text: as §1, §2, §3
smiles,measurement,setting,value
"C[Se]CC[C@H](N)C(=O)O [SeM, selenomethionine]",FC Aplp 1 expression,[1],1.02 fold
same,FC C1qg expression,[2],1.0 fold
same,FC Gadd45g expression,[3],decreased expression
same,FC Gadd45g expression,[3]; listed as SM,−1.5 (p < 0.05) fold
same,FC Gstp1 expression,Gst pi 1 (Gstp1),−1.04 fold
same,fold change (FC) in Glutathione Peroxidase 3 gene expression,Glutathione Peroxidase 3,4.6 fold
same,FC Apbb1 (Fe65) expression,[4],1.02 fold
same,"SelR gene expression, upregulated",[5],not significantly affected
same,FC Gadd45b expression,Gadd45b,−1.26 fold
same,"Type 1 iodothyronine deiodinase expression level, fold increase",[6],2.0 fold
same,FC Gstz1 expression,Gst zeta 1 (Gstz1),−1.08 fold
same,FC Gstm7 expression,Gst mu 7 (Gstm7),−1.05 fold
same,FC Cathepsin Z expression,Cathepsin Z,−1.13 fold
same,FC Cathepsin O expression,Cathepsin O,−1.16 fold
same,FC Cathepsin B expression,Cathepsin B,−1.03 fold
same,FC Nicastrin expression,Nicastrin,1.04 fold
same,FC Presenilin 1 expression,Presenilin 1,1.02 fold
same,FC Cathepsin D expression,Cathepsin D,1.02 fold
same,FC Gadd45g1p expression,[7],1.02 fold
same,FC Junb expression,Junb,−1.38 fold
same,"FC Complement component 1, q subcomponent, beta polypeptide expression",[8],−1.15 fold
"O=[Se](O)O [Sod-sel, sodium selenite]",FC Aplp 1 expression,[1],−1.55* fold
same,FC C1qg expression,[2],−1.07 fold
same,FC Gadd45g expression,[3]; listed as SS,−2.0 (p < 0.01) fold
same,FC Gstp1 expression,Gst pi 1 (Gstp1),1.02 fold
same,fold change (FC) in Glutathione Peroxidase 3 gene expression,Glutathione Peroxidase 3,3.5 fold
same,FC Apbb1 (Fe65) expression,[4],−1.32* fold
same,"SelR gene expression, upregulated",[5],1.3 fold
same,FC Gadd45b expression,Gadd45b,−1.39* fold
same,"Type 1 iodothyronine deiodinase expression level, fold increase",[6],2.8 fold
same,FC Gstz1 expression,Gst zeta 1 (Gstz1),−1.3 fold
same,FC Gstm7 expression,Gst mu 7 (Gstm7),−1.25* fold
same,FC Cathepsin Z expression,Cathepsin Z,−1.30* fold
same,FC Cathepsin O expression,Cathepsin O,−1.18 fold
same,FC Cathepsin B expression,Cathepsin B,−1.13* fold
same,FC Nicastrin expression,Nicastrin,−1.67* fold
same,FC Presenilin 1 expression,Presenilin 1,−1.11 fold
same,FC Cathepsin D expression,Cathepsin D,−1.24* fold
same,FC Gadd45g1p expression,[7],−1.12 fold
same,FC Junb expression,Junb,−1.59 fold
same,"FC Complement component 1, q subcomponent, beta polypeptide expression",[8],−1.35 fold
